Earlier results in patent publication US20120301405A1, “Simple Mechanical Procedure and Product for Deterring Substance Abuse” (priority 2005, published 2012).
Read-outs that look alike come from different tables or passages of the source.

Assays:
[1] = for Time to Peak (onset of action, in hours): maximum levels of the drug in the blood after a given dose; for Elimination ½-Life (h) [active metabolite]: value in square brackets
benzodiazepine receptors = details: for AED (Approximate Equivalent Dose): based on clinical experience
[2] = atypical benzodiazepine receptor ligands table

Compound | Time to Peak (onset of action, in hours) [1] | Elimination ½-Life ([1]; parent drug) | AED (Approximate Equivalent Dose) (benzodiazepine receptors; benzodiazepine table) | also measured
CN1C(=O)CN=C(c2ccccc2)c2cc([N+](=O)[O-])ccc21 [Nimetazepam] | 0.5-3^ hours | 14 to 30 h | 5 mg | 
CN1C(=O)CN=C(c2ccccc2)c2cc(Cl)ccc21 [Diazepam] | 1 to 1.5 h | 20 to 100 h | 10 mg | Elimination ½-Life (h) [active metabolite] [1]: [36-200] h; equivalent dose in an elderly individual on lorazepam versus what would be expected in a younger individual (benzodiazepine receptors; elderly individual on lorazepam): up to half
CNC1=Nc2ccc(Cl)cc2C(c2ccccc2)=[N+]([O-])C1 [Chlordiazepoxide] |  |  |  | elimination half-life in the elderly compared to younger individuals ([1]; elderly vs younger individuals): twice as long
N#CCCN1C(=O)C(O)N=C(c2ccccc2F)c2cc(Cl)ccc21 (centres unmarked) [Cinolazepam] | 0.5-2^ hours | 9 h | 40 mg | 
CCN(CC)CCN1C(=O)CN=C(c2ccccc2F)c2cc(Cl)ccc21 [Flurazepam] | 1 to 1.5 h | 40 to 250 h | 15 to 30 mg | 
Cc1nnc2n1-c1sc(Br)cc1C(c1ccccc1Cl)=NC2 [Brotizolam] | 0.5-2^ hours | 4 to 5 h | 0.25 mg | 
CN1C(=O)CN=C(C2=CCCCC2)c2cc(Cl)ccc21 [Tetrazepam] | 1 to 3 h | 3 to 26 h | 100 mg | 
O=C1CN=C(c2ccccc2Cl)c2cc(Cl)ccc2N1 [Delorazepam] | 1 to 2 h | 60 to 140 h | 1 mg | 
O=C(O)C1N=C(c2ccccc2)c2cc(Cl)ccc2NC1=O (centres unmarked) [Clorazepate] | variable | 36 to 100 h | 15 mg | 
O=C1CN=C(c2ccccc2Cl)c2cc([N+](=O)[O-])ccc2N1 [Clonazepam] | 1 to 4 h | 18 to 50 h | 0.5 mg | 
CN1CCN(/C=C2\N=C3CN=C(c4ccccc4Cl)c4cc([N+](=O)[O-])ccc4N3C2=O)CC1 [Loprazolam] | 0.5-4^ hours | 6 to 12 h | 1 to 2 mg | 
O=C1CN=C(c2ccccc2)c2cc(Cl)ccc2N1 [Nordazepam] |  | 50 to 120 h | 10 mg | 
Cc1c2c(cn1C)NC(=O)CN=C2c1ccccc1 [Premazepam] | 2 to 6 h | 10 to 13 h | 3.75 mg | 
O=C1CN=C(c2ccccc2)c2cc([N+](=O)[O-])ccc2N1 [Nitrazepam] | 0.5-7^ hours | 15 to 38 h | 10 mg | 
Cc1nnc2n1-c1ccc(Cl)cc1C(c1ccccc1)=NC2 [Alprazolam] | 1 to 2 h | 6 to 12 h | 0.5 mg | 
O=C1CN=C(c2ccccn2)c2cc(Br)ccc2N1 [Bromazepam] | 1 to 3 h | 10 to 20 h | 5 to 6 mg | 
CC(C)(C)OC(=O)c1ncn2c1[C@@H]1CCCN1C(=O)c1c(Br)cccc1-2 [Bretazenil] |  | 2.5 h | 0.5 mg | 
CN1C(=O)C(O)N=C(c2ccccc2)c2cc(Cl)ccc21 (centres unmarked) [Temazepam] | 0.5-3^ hours | 8 to 22 h | 20 mg | 
O=C1CN2CCOC2(c2ccccc2Cl)c2cc(Cl)ccc2N1 (centres unmarked) [Cloxazolam] |  |  | 1 mg | 
CN1CCN(C(=O)OC2c3nccnc3C(=O)N2c2ccc(Cl)cn2)CC1 (centres unmarked) [Zopiclone] |  |  |  | Elimination ½-Life [1, 2]: 4 to 6 h; AED (Approximate Equivalent Dose) (benzodiazepine receptors; [2]): 15 mg
CC1=CC(=O)N2CC(=O)N(C)c3ccc(Cl)cc3C2(c2ccccc2)O1 (centres unmarked) [Ketazolam] | 2.5-3^ hours | 30 to 100 h | 15 to 30 mg | Elimination ½-Life (h) [active metabolite] [1]: [36-200] h

Compound | Time to Peak (onset of action, in hours) [1] | Elimination ½-Life ([1]; parent drug) | AED (Approximate Equivalent Dose) (benzodiazepine receptors; benzodiazepine table) | also measured
Cc1ncc2n1-c1ccc(Cl)cc1C(c1ccccc1F)=NC2 [Midazolam] | 0.5-1^ hours |  | 5 to 8 mg | 
Cc1nnc2n1-c1ccc(Cl)cc1C(c1ccccc1Cl)=NC2 [Triazolam] | 0.5-2^ hours | 2 h | 0.25 mg | 
CCc1cc2c(s1)-n1c(C)nnc1CN=C2c1ccccc1Cl [Etizolam] | 1 to 2 h | 6 h | 1 mg | 
O=C1CN=C(c2ccccc2)c2cc(Cl)ccc2N1CC(F)(F)F [Halazepam] | 1 to 3 h | 30 to 100 h | 20 to 40 mg | 
O=C1CN=C(c2ccccc2F)c2cc(Cl)ccc2N1CC1CC1 [Flutoprazepam] | 0.5-9^ hours | 60 to 90 h | 2 to 3 mg | 
O=C1Nc2ccc(Cl)cc2C(c2ccccc2)=NC1O (centres unmarked) [Oxazepam] | 3 to 4 h | 4 to 15 h |  | 
Cc1ccc(-c2nc3ccc(C)cn3c2CC(=O)N(C)C)cc1 [Zolpidem] |  |  |  | Elimination ½-Life [1, 2]: 2.6 h; AED (Approximate Equivalent Dose) (benzodiazepine receptors; [2]): 20 mg
CCN(C(C)=O)c1cccc(-c2ccnc3c(C#N)cnn23)c1 [Zaleplon] |  |  |  | AED (Approximate Equivalent Dose) (benzodiazepine receptors; [2]): 20 mg
CCOC(=O)c1ncn2c1CN(C)C(=O)c1cc(F)ccc1-2 [Flumazenil] |  |  |  | Elimination ½-Life [1, 2]: 1 h
CN1C(=O)CC(=O)N(c2ccccc2)c2cc(Cl)ccc21 [Clobazam] |  |  |  | Elimination ½-Life [1, 2]: 8 to 60 h; AED (Approximate Equivalent Dose) (benzodiazepine receptors; [2]): 20 mg
Fc1ccccc1C1=NCC(=S)N(CC(F)(F)F)c2ccc(Cl)cc21 [Quazepam] | 1 to 5 h | 39 to 120 h | 20 mg | 
CCc1cc2c(s1)N(C)C(=O)CN=C2c1ccccc1Cl [Clotiazepam] | 1 to 3 h | 6 to 18 h | 5 to 10 mg | 
C#CCN1C(=O)CN=C(c2ccccc2)c2cc(Cl)ccc21 [Pinazepam] |  | 40 to 100 h | 20 mg | 
CN1CCN=C(c2ccccc2)c2cc(Cl)ccc21 [Medazepam] |  | 36 to 200 h | 10 mg | 
Clc1ccc2c(c1)C(c1ccccc1)=NCc1nncn1-2 [Estazolam] | 1 to 5 h | 10 to 24 h | 1 to 2 mg | 
CN1C(=O)CN=C(c2ccccc2F)c2cc([N+](=O)[O-])ccc21 [Flunitrazepam] | 0.5-3^ hours | 18 to 26 h | 1 mg | 
O=C1CN=C(c2ccccc2)c2cc(Cl)ccc2N1CC1CC1 [Prazepam] | 2 to 6 h | 36 to 200 h | 20 mg | 
CN1C(=O)C(O)N=C(c2ccccc2Cl)c2cc(Cl)ccc21 (centres unmarked) [Lormetazepam] | 0.5-2^ hours | 10 to 12 h | 1 to 2 mg | 
O=C1CN=C(c2ccccc2Cl)c2cc(Br)ccc2N1 [Phenazepam] | 1.5-4^ hours | 60 h | 1 mg | 
CN1CCN(C(=O)O[C@H]2c3nccnc3C(=O)N2c2ccc(Cl)cn2)CC1 [Eszopiclone] |  |  |  | Elimination ½-Life [1, 2]: 6 h
O=C1Nc2ccc(Cl)cc2C(c2ccccc2Cl)=NC1O (centres unmarked) [Lorazepam] | 2 to 4 h | 10 to 20 h | 1 mg | 
